Reference: patent publication US20150321985A1, “(HYDROXYSTILBENE COMPOUND)-(SINAPINIC ACID) REACTION PRODUCT HAVING ANTIFEEDING ACTIVITY” (UHA MIKAKUTO CO., LTD., priority 2012, published 2015)

How the values were obtained:
[1] = test system: agouti-related peptide (AgRP); conditions: reporter assay in cultured cells; cited from earlier work
female mice C57BL/6j = test: Examination of antifeeding activity: test diets freely fed to mice for 42 days; type: in vivo; conditions: for Total diet intake during test period: C57BL/6j mice
Experimental: To examine the antifeeding activity of UHA1028, 8-week-old female mice C57BL/6j (manufactured by CLEA Japan, Inc.) were used. […] The mice were freely fed for 42 days. During the feeding period of test diets, the diet intake and the weight were measured twice a week.
A required amount of the UHA1028 was obtained by repeating the formation and isolation described in Example 1.
In Table 2, the amount of each component is represented as g per kg of diet.
The test diets fed to the control groups are, a normal diet, a high-fat diet, and a high-fat diet containing resveratrol but containing no test substance respectively.

NPY = conditions: reporter assay in cultured cells; cited from earlier work
[2] = 0.4% test substance in high-fat diet, 42 days

SMILES | expression of AgRP [1] | Total diet intake during test period (female mice C57BL/6j; [2]) | antifeeding activity on long-term administration (female mice C57BL/6j; administered for a long period of time, as in the examples) | expression of NPY (NPY) | change in diet intake (FIG. 2) (female mice C57BL/6j; 0.05% UHA1028-containing high-fat diet versus 0.4% resveratrol intake group) | Total diet intake during test period (female mice C57BL/6j; 0.05% test substance in high-fat diet, 42 days) | Total diet intake during test period (female mice C57BL/6j; 0.1% test substance in high-fat diet, 42 days) | Total diet intake during test period (female mice C57BL/6j; 0.2% test substance in high-fat diet, 42 days) | weight increase (FIG. 3) (female mice C57BL/6j; 0.4% UHA1028 in high-fat diet versus 0.4% resveratrol intake group) | diet intake versus the other groups (female mice C57BL/6j; UHA1028 intake groups 0.05-0.4% in high-fat diet, Table 3) | anatomy of the mice at the end of the test (organs) (female mice C57BL/6j; four UHA1028 intake groups (0.05-0.4%), 42 days)
Oc1ccc(C=Cc2cc(O)cc(O)c2)cc1 [Resveratrol, resveratrol, reference compound] | suppressed the expression of AgRP and NPY | 106.7 g | very low antifeeding activity | suppressed the expression of AgRP and NPY | – | – | – | – | – | – | –
COc1cc(C(C)c2c(O)cc(/C=C/c3ccc(O)cc3)cc2O)cc(OC)c1O (stereo not drawn) [UHA1028] | – | 97.5 g | – | – | significantly reduced as compared with the resveratrol intake group | 88.4 g | 87.1 g | 99.9 g | significantly suppressed as compared with the resveratrol intake group | significantly lower than those of the other groups | no contraction or hypertrophy of organs was observed
